Source: patent US5760036A, “Aminediol protease inhibitors” (E. R. Squibb & Sons, Inc., priority 1995, dated 1998)

Tests used:
HIV protease = target: T1, HIV protease (Human immunodeficiency virus type 1 group M subtype B, UniProt P04585); test: HIV Protease Assay; type: biochemical; settings: pH 5.5, 10 μM inhibitor, 4% DMSO, 450 μM substrate, pH 5.5, 30 minutes at 37° C., RP-HPLC; read-out: HIV Protease % Inhibition at 10 μM
T1 construct: and purified protease
Procedure, shortened: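 At a single final concentration of 10 μM (4% DMSO), inhibitors were added to a 30-minute, 37° C reaction of purified enzyme with 450 μM H2N-Val-Ser-Gln-Asn-(β-naphthyl-alanine)-Pro-Val-Ile-OH at pH 5.5 (sodium acetate, BSA). Hydrolysis was quantified by reverse-phase HPLC with 220 nm detection after acid quench.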

[1] = test system: RF strain of HIV (CEM-SS cells); test: Cell Culture Anti-HIV Activity (cell viability, formazan); type: cell-based; settings: Human immunodeficiency virus 1, CEM-SS, 144 h, CEM-SS cells, RF strain of HIV, multiplicity of infection 0.04, 6 days at 37° C., 450 nm; read-out: HIV (CEM Cells) IC50
Procedure, shortened: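 Half-log compound dilutions added to CEM-SS cells (5000/well) carrying HIV RF (MOI 0.04), 6 days, 37° C. Cell protection measured as formazan from tetrazolium, A450. IC50: drug level restoring infected-cell formazan to 50% of the uninfected untreated control.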

Compound | inhibition at 10 µM (HIV protease) | IC50 [1]
CC(C)(C)OC(=O)N[C@@H](Cc1ccccc1)[C@H](O)CNC[C@@H](O)[C@H](Cc1ccccc1)NC(=O)c1ccc2ccccc2c1 [Compound 64, [1S-[1R*,2S*(2S*,3R*)]]-[2-Hydroxy-3-[[2-hydrox-3-[(2-naphthalenyl-carbonyl)amino]-4-phenylbutyl]amino]-1-(phenylmethyl)propyl]carbamic acid, 1,1-dimethylethyl ester] | 72% | > 5 µM
CC(C)(C)OC(=O)N[C@@H](Cc1ccccc1)[C@H](O)CNC[C@@H](O)[C@H](Cc1ccccc1)NC(=O)C(NC(=O)OCc1ccccc1)C(C)(C)O (single isomer, unassigned; isomer b) [Compound 302, [1S-[1R*,2S*(2S*,3R*)]]-[1-[[[3-[[(1,1-Dimethylethoxy)carbonyl]amino]-2-hydroxy-4-phenylbutyl]amino]-2-hydroxy-1-(phenylmethyl)propyl]amino]carbonyl]-2-hydroxy-2-methylpropyl]carbamic acid, phenylmethyl ester, isomer B] | 99% | 0.25 µM
CC(C)(C)OC(=O)N[C@@H](C/C=C/c1ccc(OCC(=O)N2CCOCC2)cc1)[C@H](O)CNC[C@@H](O)[C@H](Cc1ccccc1)NC(=O)OC(C)(C)C [Compound 276, [1S-[1R*,2S*(2S*,3R*)]]-[3-[[3-[[(1,1-Dimethylethoxy)carbonyl]amino]-2-hydroxy-6-[4-[2-(4-morpholinyl)-2-oxoethoxy]phenyl]-5-hexenyl]amino]-2-hydroxy-1-(phenylmethyl)propyl]carbamic acid, 1,1-dimethylethyl ester] | 97% | 0.13 µM
CC(C)[C@H](NC(=O)OCc1nc2ccccc2[nH]1)C(=O)N[C@@H](Cc1ccccc1)[C@H](O)CNC[C@@H](O)[C@H](Cc1ccccc1)NC(=O)OC(C)(C)C [Compound 93, [S-[1R*,2S*(2S*,3R*)[[-N-[3-[[3-[[(1,1-Dimethylethoxy)carbonyl]amino]-2-hydroxy-4-phenylbutyl]amino]-2-hydroxy-1-(phenylmethyl)propyl]-N2 -]-(1H-benzimidazol-2-ylmethoxy)carbonyl]-L-valinamide] | 100% | 0.18 µM
CC(C)(C)OC(=O)N[C@@H](Cc1ccccc1)[C@H](O)CNC[C@@H](O)[C@H](Cc1ccccc1)NC(=O)C(NC(=O)OCc1ccccc1)C(F)(F)F (stereo partly drawn) [Compound 328, [1S-[1R*,2S*(2S*,3R*)]]-[2-[[3-[[3-[[(1,1-Dimethylethoxy)carbonyl]amino]-2-hydroxy-4-phenylbutyl]amino]-2-hydroxy-1-(phenylmethyl)propyl]amino]-2-oxo-1-(trifluoromethyl)ethyl]carbamic acid, phenylmethyl ester] | 99% | 0.54 µM
CC(C)(C)OC(=O)N[C@@H](Cc1ccccc1)[C@H](O)CNC[C@@H](O)[C@H](Cc1ccccc1)NC(=O)[C@@H](NC(=O)OCc1cc2ncccc2o1)C(C)(C)C [Compound 323, [S-[1R*,2S*(2S*,3R*)]]-[r2,2-Dimethyl-1-[[[3-[[3-[[(1.1-dimethylethoxy)carbonyl]amino]-2-hydroxy-4-phenylbutyl]amino]-2-hydroxy-1-(phenylmethyl)propyl]amino]carbonyl]propyl]carbamic acid, (2-furo[3,2-b]pyridinyl)methyl ester] | 100% | 0.014 µM
CC(C)[C@H](NC(=O)OCC1=Cc2ccccc2C1)C(=O)N[C@@H](Cc1ccccc1)[C@H](O)CNC[C@@H](O)[C@H](Cc1ccccc1)NC(=O)OC(C)(C)C (relative stereo) [Compound 280, [1R*, 2S* (2S*, 3R*)]-N-[3-[[3-[[(1,1-Dimethylethoxy)carbonyl]amino]-2-hydroxy-4-phenylbutyl]amino]-2-hydroxy-1-(phenylmethyl)propyl]-N^2-[[(1H-inden-2-yl)methoxy]carbonyl]-L-valinamide] | 100% | 0.05 µM
CC(C)(C)OC(=O)N[C@@H](Cc1ccccc1)[C@H](O)CNC[C@@H](O)[C@H](Cc1ccccc1)NC(=O)OCc1ccccc1 [Compound 45, [R-(R*,S*)]-[Iminobis[2-hydroxy-1-(phenylmethyl)-3,1-propandiyl]biscarbamic acid, 1,1-dimethylethylphenylmethyl ester] | 87% | 0.5 µM
CC(C)(C)OC(=O)N[C@@H](Cc1ccccc1)[C@H](O)CNC[C@@H](O)[C@H](Cc1ccccc1)NC(=O)C(=O)C(C)(C)C [Compound 213, [1S-[1R*,2S*(2S*,3R*)]]-[3-[[3-[(3,3-Dimethyl-1,2-dioxobutyl)amino]-2-hydroxy-4-phenylbutyl]amino]-2-hydroxy-1-(phenylmethyl)propyl]carbamic acid, 1,1-dimethylethyl ester] | 98% | 0.17 µM
CC(C)(C)OC(=O)N[C@@H](Cc1ccccc1)[C@H](O)CNC[C@@H](O)[C@H](Cc1ccccc1)NC(=O)OC(C)(C)CF [Compound 252, [1S-(1R*,2S*)]-[Iminobis[2-hydroxy-1-(phenylmethyl)-3,1-propanediyl]]biscarbamic acid 2-fluoro-1,1-dimethylethyl 1,1-dimethylethyl ester] | 99% | 0.06 µM
CC(C)(C)OC(=O)N[C@@H](Cc1ccccc1)[C@H](O)CNC[C@@H](O)[C@H](Cc1ccccc1)NC(=O)[C@@H](NC(=O)OCc1cc2cccnc2o1)C(C)(C)C [Compound 352, [S-[1R*,2S*(2S*,3R*)]]-[2,2-Dimethyl-1-[[[3-[[3-[[(1,1-dimethylethoxy)carbonyl]amino]-2-hydroxy-4-phenylbutyl]amino]-2-hydroxy-1-(phenylmethyl)-propyl]amino]carbonyl]propyl]carbamic acid, (2-furo[2,3-b]pyridinyl)methyl ester] | 99% | 0.1 µM
CC(C)(C)OC(=O)N[C@@H](Cc1ccc(OCCc2ccccn2)cc1)[C@H](O)CNC[C@@H](O)[C@H](Cc1ccccc1)NC(=O)OC(C)(C)CO [Compound 298, [1S-[1R*,2S*(2S*,3R*)]]-[2 Hydroxy-3-[[2-hydroxy-3-[[(2-hydroxy-1,1-dimethylethoxy)carbonyl]amino]-4-phenylbutyl]amino]-1-[[4-[2-(2-pyridinyl)ethoxy]phenyl]methyl]propyl]carbamic acid, 1,1-dimethylethyl ester] | 100% | 0.06 µM
COC(=O)N[C@H](C(=O)N[C@@H](Cc1ccccc1)[C@H](O)CNC[C@@H](O)[C@H](Cc1ccccc1)NC(=O)OC(C)(C)C)C(C)C (relative stereo) [Compound 247, [1R*,2S*,3R*)]-N-[3-[[3-[[(1,1-Dimethylethoxy)carbonyl]amino]-2-hydroxy-4-phenylbutyl]amino]-2-hydroxy-1-(phenylmethyl)propyl]-N^2-(methoxycarbonyl)-L-valinamide] | 99% | 0.1 µM
